Test results as given in patent publication US20260184687A1, “DIHYDROINDENE DERIVATIVES AS MALT1 INHIBITORS” (C4X Discovery Limited, priority 2022, published 2026).

What was measured:
[1] = system: IL-2 release from stimulated Jurkat cells; assay: Human IL-2 Release Phenotypic Assay (Assay 3); assay type: cell-based; conditions: Jurkat cells (clone E6-1), 200 ng/mL PMA + 300 ng/mL ionomycin, IL-2 by ELISA
Outline: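 Jurkat E6-1 cells in RPMI1640/10% FBS were seeded at 50 000 cells/well and incubated overnight at 37° C. Half-log compound dilutions (0.5% final DMSO) were added for 30 min, then cells were stimulated with 200 ng/mL PMA + 300 ng/mL ionomycin for 48 h. IC50 came from a 4-parameter non-linear regression fit.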

[2] = target: MALT1-GS-Ub (6-His-hMALT-1 residues 339-715 fused to ubiquitin) (Homo sapiens, UniProt Q9UDY8); assay: biochemical;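 note: in vitro MALT1 protease assay: enzyme preincubated with compound 30 min at room temperature, then cleavage of fluorogenic Ac-LVSR-AMC substrate (100 µM) followed by fluorescence every 15 min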
[3] = target: T1, FL hMALT1 enzyme (Homo sapiens, UniProt Q9UDY8); assay: biochemical;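 note: Cell-free protease assay: enzyme preincubated with compound 30 min at room temperature, then cleavage of fluorogenic Ac-LVSR-AMC substrate (100 µM) tracked by fluorescence (ex 360/em 460 nm)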
T1 sequence (Q9UDY8 1-824): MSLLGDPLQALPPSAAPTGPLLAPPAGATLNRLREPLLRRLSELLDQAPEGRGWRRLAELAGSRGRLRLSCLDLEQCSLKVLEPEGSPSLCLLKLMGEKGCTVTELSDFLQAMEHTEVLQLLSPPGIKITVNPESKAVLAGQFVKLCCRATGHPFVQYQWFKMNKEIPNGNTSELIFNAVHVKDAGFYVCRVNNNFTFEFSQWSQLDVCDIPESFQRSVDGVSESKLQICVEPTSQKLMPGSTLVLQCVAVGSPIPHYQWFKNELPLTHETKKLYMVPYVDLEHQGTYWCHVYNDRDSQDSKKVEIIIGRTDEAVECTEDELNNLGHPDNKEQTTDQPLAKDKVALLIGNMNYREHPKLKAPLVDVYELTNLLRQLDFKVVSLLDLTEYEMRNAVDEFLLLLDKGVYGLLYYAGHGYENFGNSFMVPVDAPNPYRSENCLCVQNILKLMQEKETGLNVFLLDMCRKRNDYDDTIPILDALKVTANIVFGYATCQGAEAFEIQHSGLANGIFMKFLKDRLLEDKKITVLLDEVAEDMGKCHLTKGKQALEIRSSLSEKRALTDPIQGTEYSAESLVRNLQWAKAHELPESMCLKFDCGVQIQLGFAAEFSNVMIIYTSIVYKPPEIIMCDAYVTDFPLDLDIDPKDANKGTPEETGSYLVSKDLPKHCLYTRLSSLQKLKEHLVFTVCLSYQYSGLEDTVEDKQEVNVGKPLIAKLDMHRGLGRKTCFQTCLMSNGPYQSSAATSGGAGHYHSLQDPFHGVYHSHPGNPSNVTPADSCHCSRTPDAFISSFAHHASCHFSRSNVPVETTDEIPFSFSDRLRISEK

MALT1-GS-Ub (6-His-hMALT-1 residues 339-715 fused to ubiquitin), sequence (Q9UDY8 with tags, fused parts or gaps limits assumed): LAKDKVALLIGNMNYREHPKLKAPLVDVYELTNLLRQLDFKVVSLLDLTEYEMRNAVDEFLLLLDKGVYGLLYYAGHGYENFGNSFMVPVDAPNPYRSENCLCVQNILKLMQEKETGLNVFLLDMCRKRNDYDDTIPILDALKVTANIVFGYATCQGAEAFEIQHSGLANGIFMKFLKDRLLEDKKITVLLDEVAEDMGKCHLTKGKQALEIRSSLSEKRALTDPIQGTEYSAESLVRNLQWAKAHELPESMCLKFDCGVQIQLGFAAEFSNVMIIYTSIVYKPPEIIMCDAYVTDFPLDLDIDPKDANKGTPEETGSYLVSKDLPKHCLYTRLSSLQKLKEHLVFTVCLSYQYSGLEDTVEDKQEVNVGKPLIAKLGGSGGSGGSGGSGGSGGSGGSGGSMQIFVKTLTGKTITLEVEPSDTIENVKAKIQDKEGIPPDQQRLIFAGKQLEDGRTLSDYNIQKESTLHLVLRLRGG

| IC50 ([1]; Homo sapiens, Jurkat, 48 h) | IC50 [2] | IC50 ([1]; 48 hours) | IC50 [3] | Compound |
| --- | --- | --- | --- | --- |
| 4.69 µM | 0.26 µM | – | – | CN(C(=O)CCCC(=O)O)[C@@H](c1ccc(NC2Cc3ccccc3C2(C)C)cc1)C(F)(F)F (single isomer, unassigned) [Example 49] |
| – | 0.12 µM | 2.94 µM | – | CN(C(=O)CCCC(=O)O)[C@@H](c1ccc(NC2Cc3ccccc3C2(C)C)cc1)C(F)(F)F (single isomer, unassigned) [Example 50] |
| 9.51 µM | 0.26 µM | – | – | CN(C(=O)CCC(=O)O)[C@@H](c1ccc(NC2Cc3ccccc3C2(C)C)cc1)C(F)(F)F (single isomer, unassigned) [Example 52] |
| – | 0.17 µM | 7.29 µM | – | CN(C(=O)CCC(=O)O)[C@@H](c1ccc(NC2Cc3ccccc3C2(C)C)cc1)C(F)(F)F (single isomer, unassigned) [Example 53] |
| 2.11 µM | 0.33 µM | – | – | COc1ccc2c(c1)CC(Nc1ccc([C@H](N(C)C(=O)C3CCS(=O)(=O)CC3)C(F)(F)F)cc1)C2 (single isomer, unassigned) [Example 54] |
| – | 0.18 µM | 0.84 µM | – | CNS(=O)(=O)CCC(=O)N(C)[C@@H](c1ccc(NC2Cc3ccccc3C2(C)C)cc1)C(F)(F)F (single isomer, unassigned) [Example 61] |
| – | 0.17 µM | 2.12 µM | – | CNS(=O)(=O)CCC(=O)N(C)[C@@H](c1ccc(NC2Cc3ccccc3C2(C)C)cc1)C(F)(F)F (single isomer, unassigned) [Example 62] |
| 2.62 µM | 0.33 µM | – | – | CN(C(=O)C1CCS(=O)(=O)CC1)[C@@H](c1ccc(NC2Cc3ccccc3C2)cn1)C(F)(F)F (single isomer, unassigned) [Example 71] |
| – | 6.86 µM | – | > 3 µM | CN(C(=O)C1CNC1)C(c1ccc(NC2Cc3ccccc3C2(C)C)nc1)C(F)(F)F (single isomer, unassigned) [Example 89, N-(1-(6-((1,1-Dimethyl-2,3-dihydro-1H-inden-2-yl)amino)pyridin-3-yl)-2,2,2-trifluoroethyl)-N-methylazetidine-3-carboxamide] |
| – | 81 µM | – | > 3 µM | CN1CC(C(=O)N(C)C(c2ccc(NC3Cc4ccccc4C3(C)C)cn2)C(F)(F)F)C1 (single isomer, unassigned) [Example 90, N-(1-(5-((1,1-Dimethyl-2,3-dihydro-1H-inden-2-yl)amino)pyridin-2-yl)-2,2,2-trifluoroethyl)-N,1-dimethylazetidine-3-carboxamide] |
| – | 12 µM | – | > 3 µM | CN1CC(C(=O)N(C)C(c2ccc(NC3Cc4ccccc4C3(C)C)cn2)C(F)(F)F)C1 (single isomer, unassigned) [Example 91, N-(1-(5-((1,1-Dimethyl-2,3-dihydro-1H-inden-2-yl)amino)pyridin-2-yl)-2,2,2-trifluoroethyl)-N,1-dimethylazetidine-3-carboxamide] |
| – | 17 µM | – | > 3 µM | CN1CC(C(=O)N(C)C(c2ccc(NC3Cc4ccccc4C3(C)C)nc2)C(F)(F)F)C1 (single isomer, unassigned) [Example 94, N-(1-(6-((1,1-Dimethyl-2,3-dihydro-1H-inden-2-yl)amino)pyridin-3-yl)-2,2,2-trifluoroethyl)-N,1-dimethylazetidine-3-carboxamide] |
| – | 16 µM | – | > 3 µM | CN(C(=O)c1cc[nH]c(=O)c1)C(c1ccc(NC2Cc3ccccc3C2(C)C)cn1)C(F)(F)F (single isomer, unassigned) [Example 97, N-(1-(5-((1,1-Dimethyl-2,3-dihydro-1H-inden-2-yl)amino)pyridin-2-yl)-2,2,2-trifluoroethyl)-N-methyl-2-oxo-1,2-dihydropyridine-4-carboxamide] |
| – | 26 µM | – | > 3 µM | CN(C(=O)c1cc[nH]c(=O)c1)C(c1ccc(NC2Cc3ccccc3C2(C)C)cn1)C(F)(F)F (single isomer, unassigned) [Example 99, N-(1-(5-((1,1-Dimethyl-2,3-dihydro-1H-inden-2-yl)amino)pyridin-2-yl)-2,2,2-trifluoroethyl)-N-methyl-2-oxo-1,2-dihydropyridine-4-carboxamide] |
